# pIC50: −log10 of the molar value. The source made the active and inactive calls. The rule behind the calls is not given here.
# Key:
# [1] = test system: Candida albicans; assay: Antifungal activity against Candida albicans ATCC 90028 assessed as planktonic growth inhibition at 0.09 uM after 48 hrs by M27-A3 protocol based method relative to control; type: functional; conditions: ATCC 90028, 48 h, read-out: GI
# [2] = test system: Candida albicans; assay: Antifungal activity against Candida albicans ATCC 90028 assessed as planktonic growth inhibition at 0.18 uM after 48 hrs by M27-A3 protocol based method relative to control; type: functional; conditions: ATCC 90028, 48 h, read-out: GI
# [3] = test system: Candida albicans; assay: Antifungal activity against Candida albicans ATCC 90028 assessed as planktonic growth inhibition at 0.36 uM after 48 hrs by M27-A3 protocol based method relative to control; type: functional; conditions: ATCC 90028, 48 h, read-out: GI
# [4] = test system: Candida albicans; assay: Antifungal activity against Candida albicans ATCC 90028 assessed as planktonic growth inhibition at 0.72 uM after 48 hrs by M27-A3 protocol based method relative to control; type: functional; conditions: ATCC 90028, 48 h, read-out: GI
# [5] = test system: Candida albicans; assay: Antifungal activity against Candida albicans ATCC 90028 assessed as planktonic growth inhibition at 1.44 uM after 48 hrs by M27-A3 protocol based method relative to control; type: functional; conditions: ATCC 90028, 48 h, read-out: GI
# [6] = test system: Candida albicans; assay: Antifungal activity against Candida albicans ATCC 90028 assessed as planktonic growth inhibition at 2.88 uM after 48 hrs by M27-A3 protocol based method relative to control; type: functional; conditions: ATCC 90028, 48 h, read-out: GI
# [7] = test system: Candida albicans; assay: Antifungal activity against Candida albicans ATCC 90028 assessed as planktonic growth inhibition at 5.76 uM after 48 hrs by M27-A3 protocol based method relative to control; type: functional; conditions: ATCC 90028, 48 h, read-out: GI
# [8] = test system: Candida albicans; assay: Antifungal activity against Candida albicans ATCC 90028 assessed as planktonic growth inhibition at 11.51 uM after 48 hrs by M27-A3 protocol based method relative to control; type: functional; conditions: ATCC 90028, 48 h, read-out: GI
# [9] = test system: Candida albicans; assay: Antifungal activity against Candida albicans ATCC 90028 assessed as planktonic growth inhibition at 23.02 uM after 48 hrs by M27-A3 protocol based method relative to control; type: functional; conditions: ATCC 90028, 48 h, read-out: GI
# [10] = test system: Candida albicans; assay: Antifungal activity against Candida albicans ATCC 90028 assessed as planktonic growth inhibition at 46.05 uM after 48 hrs by M27-A3 protocol based method relative to control; type: functional; conditions: ATCC 90028, 48 h, read-out: GI
# [11] = test system: Candida albicans; assay: Fungicidal activity against Candida albicans ATCC 90028 assessed as log reduction in fungal load incubated for 48 hrs followed by replating on sabouraud dextrose agar plate and measured after 48 hrs; type: functional
# [12] = Selectivity index, ratio of CC50 for African green monkey Vero cells to IC50 for Candida albicans ATCC 90028; type: toxicity; conditions: read-out: Ratio CC50/IC50
# [13] = Toxicity in Galleria mellonella larvae assessed as survival rate at 46.05 uM measured after 18 hrs (reference value: 100%)
# [14] = Toxicity in Galleria mellonella larvae assessed as survival rate at 46.05 uM measured after 48 hrs (reference value: 100%)
# [15] = Toxicity in Galleria mellonella larvae assessed as survival rate at 46.05 uM measured after 120 hrs (reference value: 100%)
# [16] = Toxicity in Galleria mellonella larvae assessed as movement melanization at 46.05 uM measured after 18 hrs (reference value: 0%)
# [17] = Toxicity in Galleria mellonella larvae assessed as movement melanization at 46.05 uM measured after 48 hrs (reference value: 0%)
# [18] = Toxicity in Galleria mellonella larvae assessed as movement melanization at 46.05 uM measured after 128 hrs (reference value: 0%)
# [19] = Toxicity in Galleria mellonella larvae assessed as cocoon formation at 46.05 uM measured after 18 hrs (reference value: 60 +/- 20%)
# [20] = Toxicity in Galleria mellonella larvae assessed as cocoon formation at 46.05 uM measured after 48 hrs (reference value: 85 +/- 5%)
# [21] = Toxicity in Galleria mellonella larvae assessed as cocoon formation at 46.05 uM measured after 48 hrs (reference value: 100 +/- 0%)
# [22] = test system: Candida albicans; assay: Antibiofilm activity against Candida albicans ATCC 90028 assessed as inhibition of biofilm formation […] after 24 hrs by XTT assay relative to control; type: functional, organism-based; conditions: ATCC 90028, 24 h
# [23] = test system: Candida albicans; assay: Antifungal activity against Candida albicans ATCC 90028 assessed as reduction in cell growth after 48 to 72 hrs by M27-A3 protocol based method; type: functional
# [24] = test system: Candida albicans; assay: Antifungal activity against Candida albicans ATCC 90028 assessed as reduction in cell growth after 48 to 72 hrs in presence of ergosterol by M27-A3 protocol based method; type: functional
# [25] = test system: Candida albicans; assay: Inhibition of Candida albicans ATCC 90028 cell adhesion to human TR146 cells at reduction in cell adherence at 46.05 uM relative to control; type: functional; conditions: ATCC 90028, TR146
# [26] = test system: Candida albicans; assay: Induction of apoptosis in Candida albicans ATCC 90028 assessed as necrotic cells at 46.05 uM by Annexin V-FITC/propidium iodide staining based flow cytometry relative to control; type: functional
# [27] = test system: Candida albicans; assay: Selectivity index, ratio of CC50 for induction of necrosis in Candida albicans ATCC 90028 to MIC for Candida albicans ATCC 90028; type: functional
# [28] = test system: Candida albicans; assay: Induction of apoptosis in Candida albicans ATCC 90028 assessed as necrotic cells by Annexin V-FITC/propidium iodide staining based flow cytometry; type: functional, organism-based
# [29] = test system: Candida albicans; assay: Induction of reactive oxygen species generation in Candida albicans ATCC 90028 assessed as ROS level at 46.05 uM after 18 hrs by DCFDA probe based flow cytometry (reference value: 0.3%); type: functional
# [30] = test system: Candida albicans; assay: Cell cycle arrest in Candida albicans ATCC 90028 assessed as accumulation at G0/G1-phase by propidium iodide staining based flow cytometry; type: functional, organism-based
# [31] = test system: Candida albicans; assay: Induction of Candida albicans ATCC 90028 internalization in mouse RAW264.7 cells assessed as reduction in fungus-induced cell damage by measuring live and early apoptotic cells at 46.05 uM after 2 hrs acridine orange/ethidium bromide staining based confocal scanning microscopic analysis; type: functional, organism-based
# [32] = test system: Candida albicans; assay: Antifungal activity against Candida albicans ATCC 90028 infected in Galleria mellonella larvae assessed as induction of pathogen entrapping by haemocytes at 10 uL measured at 24 hrs interval for 144 hrs by HE staining based microscopic analysis; type: functional, organism-based
# [33] = test system: Candida albicans; assay: Antifungal activity against Candida albicans ATCC 90028 infected in Galleria mellonella larvae assessed as inhibition of fungus filamentation at 10 uL measured at 24 hrs interval for 144 hrs by HE staining based microscopic analysis; type: functional, organism-based
smiles,measurement,setting,value
Cc1cccc(C2CCCN2CCCn2nnc(-c3ccccc3)n2)c1 (stereo not drawn),inhibition of growth at 0.09 µM,[1],100%
same,inhibition of growth at 0.18 µM,[2],99.4%
same,inhibition of growth at 0.36 µM,[3],99.5%
same,inhibition of growth at 0.72 µM,[4],99.4%
same,inhibition of growth at 1.44 µM,[5],99.4%
same,inhibition of growth at 2.88 µM,[6],99.3%
same,inhibition of growth at 5.76 µM,[7],99.4%
same,inhibition of growth at 11.51 µM,[8],99.5%
same,inhibition of growth at 23.02 µM,[9],99.4%
same,inhibition of growth at 46.05 µM,[10],99.4%
same,log(activity),[11],-0.1
same,selectivity ratio,[12],2
same,"survival at 18 h, 46.05 µM",[13],100%
same,"survival at 48 h, 46.05 µM",[14],100%
same,"survival at 120 h, 46.05 µM",[15],80%
same,Activity,[16],0%
same,Activity,[17],0%
same,Activity,[18],20%
same,Activity,[19],87%
same,Activity,[20],73%
same,Activity,[21],80%
same,pIC50,[22],4.34
same,MIC,[23],11.5 µM
same,MIC,[24],23 µM
same,inhibition at 46.05 µM,[25],98.2%
same,Activity,[26],97%
same,Selectivity Index,[27],4
same,pIC50,[28],4.34
same,Activity,[29],7%
same,Activity,[30],Active
same,Activity,[31],Active
same,Activity,[32],Active
same,inhibition,[33],Active

# — ChEMBL document CHEMBL4411303, “Synthesis of tetrazole derivatives bearing pyrrolidine scaffold and evaluation of their antifungal activity against Candida albicans” (Eur J Med Chem, 2019)
